# Experimental data taken from patent publication US20040132188A1, “Use of non-complexing peptides for the preparation of a composition for transfection of a polynucleotide into a cell and compositions useful in gene therapy” (priority 2001, published 2004).
# Ends that are not written are not given here.
# Tested on: HeLa cells
# Test: Transfection in vitro, luciferase plasmid pTG11236
# Assay type: cell-based
# Method: Cells were plated on 24 well plates at a density of 4×10^4 (293-EBNA ) or 7×10^4 (HeLa, Renca) cells/well in DMEM supplemented with 10% FCS. The next day, the medium was replaced by 200 μl serum-free DMEM and plasmid (PTG11056 or pTG11236)/peptide complexes or plasmid/peptide/lipid complexes were prepared in 30 μl 0.9% NaCl or 5% glucose. After 20 min at room temperature these complexes were added to the cells which were then incubated for 2-3 h at 37° C. and 5% CO2 before 1 ml serum-containing DMEM was added. Approximately 20 hours later, cells were lysed by addition of 100 μl 1× Promega lysis buffer, 20 μl of the lysates were analysed for luciferase activity. Proteins were quantified with the bicinchonic acid (BCA) colorimetric method (Smith, Anal. Biochem. 150 (1985), 76-85). […]
# HeLa cells were seeded at a density of 6×10^4 cells on 24 well plates. The next day, cells were incubated with 200 μl serum-free medium, 30 μl of plasmid (50 ng)/peptide/lipid mixtures were added and incubated for 3 h at 37° C. in 5% CO2. 1 ml of DMEM+10% FCS was then added. The next day, the medium was removed and cells were washed with 500 μl of PBS and subsequently treated with 100 μl of Promega lysis buffer. Plates were stored at −80° C. until luciferase activity was measured of 20 μl of the cell lysate. The protein assay was performed using the Pierce BCA kit.
# JTS1 was dissolved to 1 mg/ml in 1 mM NaOH and mixed with DNA diluted in 5% glucose. ppTG1 was then added to this solution. The pcTG90/DOPE ppTG1 mixtures were prepared as described in Example 6. Transfection assays were performed on HeLa cells with 50 ng of plasmid as described in Example 6.
# The series of ppTG1 derivatives listed in Material and Methods were tested for their gene transfer efficiencies in Hela cells. 6×10^4 cells were transfected with 50 ng pTG11236 complexed with increasing amounts of peptide. Luciferase activity was analyzed day 1 after transfection. The results are shown in FIG. 10B (ppTG20, ppTG21), FIG. 10C (ppTG25, ppTG26, ppTG27), FIG. 10D (ppTG28 to ppTG33), FIG. 10E (PEG-ppTG1 and PEG-ppTG20), FIG. 10F (ppTG22 to ppTG24) and FIG. 10G (ppTG20-D).
sequence,measurement,setting,value
GLFKALLKLLKSLWKLLLKA,improvement of the transfection efficiency of pcTG90/DOPE,"50 ng plasmid, final charge ratio 3, 5 and 10, ppTG1 contributing 1/3, 1/5 and 1/10 of the positive charge",at least 1 log
same,improvement of the transfection efficiency of pcTG90/DOPE,"50 ng plasmid, final charge ratio 5 and 10, ppTG1 contributing 2/3 and 7/10 of the positive charge",2 log
same,"transfection, peptide alone","50 ng plasmid, final charge ratio of 3",better results than pcTG90/DOPE alone
same,comparison as transfection reagent,0.5 μg or 0.05 μg pTG11236,better transfection reagent than JTS-1-K13
same,luciferase activities,"0.5 μg or 0.05 μg pTG11236 with 1.17 μg or 0.117 μg peptide, charge ratio 1.8",comparable luciferase activities as observed for DNA formulated with Lipofectin
same,more efficient than the complex comprising KALA,"HeLa cells, in the best case",3000 fold
